Test results as given in US6573246B1, “Modified ether glyceroglycolipids” (The Liposome Company, Inc., priority 1995, dated 2003).

Experiments:
[1] = tested on: MCF-7 (breast adenocarcinoma) cells; test: growth inhibition of MCF-7 cells in culture; assay type: cell-based, human; conditions: MCF7; mean ± standard deviation; read-out: Gl50 (concentration of lipid required to inhibit the growth of fifty percent of the cells in culture)
Procedure: (§1) Human epithelial cancer cell lines were grown from frozen stocks originally obtained from the ATCC, in media commonly used for growing these cells in culture. For example, A549 cells (non-small cell lung adenocarcinoma) were cultured in Ham's F-12 medium, T84 cells (colon carcinoma) were cultured in a 1:1 mixture of F-12 and DMEM while MCF-7 (breast adenocarcinoma) and A427 (large cell lung carcinoma) cells were cultured in DMEM. The media were supplemented with 10% fetal bovine serum, penicillin (50 U/ml), streptomycin (50 micogram/ml) and fungizone (0.5 microgram/ml). OVCAR-3 cells (ovarian adenocarcinoma) were cultured in RPMI 1640 medium supplemented with 20% FBS and 10 microgram/ml insulin.
(§2) Cells were subcultured into 24-well plates and the cell number was monitored daily. When the cells were in log phase, the media was replaced with one containing the required drug concentration, and the cells were incubated for 72 h. The increase in cell numbers relative to control wells (without any drug) was determined after the incubation. Stock solutions of the drugs ([…]) were prepared in ethanol and stored at −20 deg. C. Etherlipid solutions (30 micromolar) in the appropriate media were prepared fresh on the day of the experiment and serially diluted to give the required concentrations. The final concentration of ethanol in all wells was 0.1% (v/v).
(§3) Gl50 values are given as the mean ± standard deviation; the Gl50 value from each experiment “n” was generated from three individual wells on two separate plates (six total wells); n=1 for compounds 3-6; n=2 for most cell lines treated with compound 2 ^an=3; ^bn=2; ^cn=6; ^dn=8.

[2] = tested on: A549 cells (non-small cell lung adenocarcinoma); test: growth inhibition of A549 cells in culture; assay type: cell-based, human; conditions: mean ± standard deviation, read-out: Gl50 (concentration of lipid required to inhibit the growth of fifty percent of the cells in culture)
Procedure: as §1, §2, §3

[3] = tested on: MCF-7/Adr (adriamycin-resistant) cells; test: growth inhibition of MCF7/adr cells in culture; assay type: cell-based, human; conditions: mean ± standard deviation, read-out: Gl50 (concentration of lipid required to inhibit the growth of fifty percent of the cells in culture)
Procedure: (§4) The Gl50 values for edelfosine (1), 2′-deoxy-β-D-arabinopyranosyl (2), 2′-deoxy-α-D-arabinopyranosyl (3), 2-O-methyl-β-D-glucopyranosyl (4), 2′-O-methyl-β-D-mannopyranosyl (5) and α-D-mannopyransoyl (6) on A-549, MCF-7, Lewis Lung, MCF-7/Adr (adriamycin-resistant), P388, P-388/Adr, L1210 and L1210/vmdr cells were determined and are set forth below (see Table 4) as the concentration (micromolar) of lipid required to inhibit the growth of fifty percent of the cells in culture.
as §3

Lewis Lung cells = test: growth inhibition of Lewis Lung cells in culture; assay type: cell-based, murine; conditions: mean ± standard deviation, read-out: Gl50 (concentration of lipid required to inhibit the growth of fifty percent of the cells in culture)
Procedure: as §4, §3

P388 cells = test: growth inhibition of P388 cells in culture; assay type: cell-based, murine; conditions: mean ± standard deviation, read-out: Gl50 (concentration of lipid required to inhibit the growth of fifty percent of the cells in culture)
Procedure: as §4, §3

P-388/Adr cells = test: growth inhibition of P388/adr cells in culture; assay type: cell-based, murine; conditions: mean ± standard deviation, read-out: Gl50 (concentration of lipid required to inhibit the growth of fifty percent of the cells in culture)
Procedure: as §4, §3

HT29 cells = test: growth inhibition of HT29 cells in culture; assay type: cell-based; conditions: mean ± standard deviation, read-out: Gl50 (concentration of lipid required to inhibit the growth of fifty percent of the cells in culture)
L1210 cells = test: growth inhibition of L1210 cells in culture; assay type: cell-based; conditions: mean ± standard deviation, read-out: Gl50 (concentration of lipid required to inhibit the growth of fifty percent of the cells in culture)
Procedure: as §4, §3

L1210/vmdr cells = test: growth inhibition of L1210/vmdr cells in culture; assay type: cell-based; conditions: mean ± standard deviation, read-out: Gl50 (concentration of lipid required to inhibit the growth of fifty percent of the cells in culture)
Procedure: as §4, §3

| IC50 [1] | IC50 [2] | IC50 [3] | IC50 (P388 cells) | IC50 (P-388/Adr cells) | IC50 (HT29 cells) | IC50 (L1210 cells) | IC50 (L1210/vmdr cells) | Structure (SMILES) | IC50 (Lewis Lung cells) |
| --- | --- | --- | --- | --- | --- | --- | --- | --- | --- |
| 23.1 ± 0.64 µM | 18.3 ± 0.14 µM | 21.8 ± 0.63 µM | 18.1 ± 1.13 µM | 29.3 ± 5.66 µM | – | – | – | CCCCCCCCCCCCCCCCOC[C@H](CO[C@@H]1O[C@H](CO)[C@@H](O)[C@H](O)[C@H]1OC)OC [compound 4, 1-O-Hexadecyl-2-O-methyl-3-O-(2′-methyl-β-D-glucopyransoyl)-sn-glycerol] | 26 ± 0.71 µM |
| 24.4 ± 0.64 µM | 19.65 ± 0.07 µM | 24.4 ± 0.42 µM | – | – | 29.6 ± 0.28 µM | 18.8 ± 0.49 µM | 26.9 ± 1.06 µM | CCCCCCCCCCCCCCCCOC[C@H](CO[C@@H]1C[C@H](O)[C@H](O)CO1)OC [compound 3, 1-O-Hexadecyl-2-O-methyl-3-O-(2′-deoxy-α-D-arabinopyransoyl)-sn-glycerol] | – |
| 18.2 µM | 15.55 ± 0.07 µM | 18.55 ± 0.07 µM | – | – | 20 ± 0.28 µM | 15.5 ± 0.35 µM | 16.5 ± 1.13 µM | CCCCCCCCCCCCCCCCOC[C@H](CO[C@H]1O[C@H](CO)[C@@H](O)[C@H](O)[C@@H]1OC)OC [compound 5, 1-O-Hexadecyl-2-O-methyl-3-O-(2′-O-methyl-α-D-mannopyransoyl)-sn-glycerol] | – |
